Measurements published in US6921773B2, “Use of α-1AR subtype-selective drugs in patients with acute myocardial infarction” (Duke University, priority 1999, dated 2005).
“Also recorded” adds a separate entry of the source.

How the values were obtained:
[1] = system: human mammary artery; test: Phenylephrine-induced mammary artery contraction (isometric tension, organ chambers), with or without a1AR antagonists; conditions: for Shift of phenylephrine dose response by antagonist: prazosin 10^-9 and 10^-8 mol/L, 5-MU/spiperone/BMY7378 10^-8 and 10^-7 mol/L; for Kb: read-out: Potency in inhibiting mammary artery contraction (pKB) (converted)
Source text: Mammary arteries were immersed in cold oxygenated Krebs-Ringer bicarbonate solution (118.3 mmol/L NaCl, 4.7 mmol/L KCl, 1.2 mmol/L MgSO4, 1.2 mmol/L KHPO4, […], 25 mmol/L NaHCO3, […], […]), cleaned of loose connective tissue, cut into 4-5 mm long rings, and suspended for isometric tension recording in organ chambers. One stirrup was anchored to the chamber and the other connected to a strain gauge (FT-102) for measurement of isometric force (MacLab, CB Sciences; Milford, Mass.). All concentration effect curves were performed at optimum resting tone (˜3 g in pilot studies). Contractile response to 60 mmol/L KCI was performed; this determined vessel viability and facilitated normalization of phenylephrine response across vessel rings. Phenylephrine dose-response curves were generated (10^−4-10^−9mol/L) in ½ log order concentrations in the absence/presence of competitive a1AR antagonists. […] Antagonist potency was expressed as the dissociation constant (KB) determined from pKB=log[B]log(DR-1), where [B] is antagonist concentration and DR the dose ratio produced by antagonist. Dose response curves were analyzed using DOSE RESPONSE software (MacLab, CB Sciences).

[2] = elderly patients; compared with alfuzosin (non-selective); cited from earlier work
[3] = target: a1AR; test: [125I]HEAT saturation binding isotherms in human vessel membranes; conditions: n=2-4
Protocol: (§1) Vessels were weighed, lumen diameter measured, pulverized under liquid nitrogen, and suspended in cold lysis buffer (5 mmol/L Tris HCl and 5 mmol/L EDTA, pH 7.4) with protease inhibitors.^14 After lysate preparation, membranes were resuspended in cold binding buffer (150 mmol/L NaCl, 50 mmol/L Tris·HCl, 5 mmol/L EDTA, with protease inhibitors, pH 7.4) as previously described;^14 protein concentration was determined using the bicinchoninic acid method (Pierce, Rockford, Ill.). Full saturation binding isotherms were performed in selected human vessels (aorta, mammary artery, saphenous vein) in 250 μl binding buffer (20-60 μg vessel membrane protein) using the α1-adrenergic antagonist [^125I]HEAT(2-[b-(hydroxy-3[^125I]iodophenyl)ethyl-aminomethyl]-tetralone; DuPont-NEN; Boston, Mass.) as previously described.^14 To measure total a1AR density in all vessels, a saturating concentration (300 pmol/L) of the [^125I]HEAT was used.

[4] = system: a1AR subtypes; test: Competition analysis against [125I]HEAT in human vessel membranes; format: binding; conditions: mammary, renal, splenic arteries, and vena cava; n=3 experiments per vessel
Protocol: as §1

[5] = Homo sapiens, phenylephrine dose response curves, mean±SEM

With `COc1ccccc1N1CCN(CCN2C(=O)CC3(CCCC3)CC2=O)CC1` [BMY7378] the “Shift of phenylephrine dose response by antagonist” value (shortened to “Shift”) [1] was “does not produce a significant shift; also recorded: does not produce a shift in dose response”.
For `COc1cc2nc(N3CCN(C(=O)c4ccco4)CC3)nc(N)c2cc1OC` [prazosin], the Kb [1, 5] was 0.631 nM and the “Shift” value [1] was “concentration dependent shift in potency without reducing maximum response”.
In the case of `CCOc1ccccc1OCCN[C@H](C)Cc1ccc(OC)c(S(N)(=O)=O)c1` [tamsulosin], the Blood pressure perturbation [2] is given as “less blood pressure perturbation”.
With `CNC[C@H](O)c1cccc(O)c1` [Phenylephrine] the EC50 ([1]; Homo sapiens, 10 mammary arteries, mean±SEM, read-out: pD2 of isometric contraction (converted)) was 1000 nM.
In the case of `O=C(CCCN1CCC2(CC1)C(=O)NCN2c1ccccc1)c1ccc(F)cc1` [spiperone], the Kb [1, 5] is reported as 2.51 nM and the “Shift” value [1] is reported as “concentration dependent shift in potency without reducing maximum response”.
In the case of `O=C1c2ccccc2CCC1CNCCc1ccc(O)c(I)c1` (stereo not shown) [^125I-HEAT, 2-[b-(hydroxy-3[^125I]iodophenyl)ethyl-aminomethyl]-tetralone], the Kd ([3]; aorta) is reported as 0.13 ± 0.0002 nM, the Kd ([3]; mammary artery) is reported as 0.13 ± 0.0031 nM and the Kd ([3]; saphenous vein) is reported as 0.13 ± 0.00065 nM.
For `COc1ccccc1N1CCN(CCCNc2c(C)c(=O)n(C)c(=O)n2C)CC1` [5-MU], the “Potency in inhibiting mammary artery contraction (pKB)” value ([1]; phenylephrine dose response curves, mean±SEM) was 8.4±0.63, the “Shift” value [1] was “concentration dependent shift in potency without reducing maximum response” and the “Number of binding sites in competition analysis” value [4] was “binds to two sites”.
